In PMC11111955, “Safety and efficacy evaluation of halicin as an effective drug for inhibiting intestinal infections” (Frontiers in Pharmacology, 2024):

Columns and labels:
S. aureus (ATCC 29213) = assay: Growth kinetics curve; format: cell-based, Staphylococcus aureus
[1] = Pharmacokinetics of halicin in rat (oral)

SMILES: Nc1nnc(Sc2ncc([N+](=O)[O-])s2)s1 [halicin]
- growth in growth kinetics curve assay (S. aureus (ATCC 29213); 1 × MIC): started to grow rapidly after 16 h
- growth in growth kinetics curve assay (S. aureus (ATCC 29213); 4 × MIC, after 20 h): still proliferated significantly
- type of antibacterial action (S. aureus (ATCC 29213); against S. aureus): bacteriostatic rather than a bactericidal agent
- AUC0-last ([1]; High dose (50 mg/kg)): 459.58 ± 34.53 ng·h/mL
- AUC0-∞ ([1]; High dose (50 mg/kg)): 510.86 ± 46.62 ng·h/mL
- Cl/F ([1]; High dose (50 mg/kg)): 983.0528 ± 117.355 mL/min/kg
- Cmax ([1]; High dose (50 mg/kg)): 64.25 ± 1.98 ng/mL
- MRTlast ([1]; High dose (50 mg/kg)): 5.85 ± 0.13 h
- T1/2λz ([1]; High dose (50 mg/kg)): 8.57 ± 0.22 h
- Tmax ([1]; High dose (50 mg/kg)): 1.33 ± 1.41 h
- Vd/F ([1]; High dose (50 mg/kg)): 828.26908 ± 70.84029 L/kg
- λz ([1]; High dose (50 mg/kg)): 0.085 ± 0.0016 h⁻¹
- AUC0-last ([1]; Low dose (10 mg/kg)): 318.05 ± 31.27 ng·h/mL
- AUC0-∞ ([1]; Low dose (10 mg/kg)): 395.88 ± 42.41 ng·h/mL
- Cl/F ([1]; Low dose (10 mg/kg)): 422.673 ± 44.3642 mL/min/kg
- Cmax ([1]; Low dose (10 mg/kg)): 40.99 ± 2.37 ng/mL
- MRTlast ([1]; Low dose (10 mg/kg)): 7.58 ± 0.41 h
- T1/2λz ([1]; Low dose (10 mg/kg)): 10.32 ± 2.22 h
- Tmax ([1]; Low dose (10 mg/kg)): 1.33 ± 1.41 h
- Vd/F ([1]; Low dose (10 mg/kg)): 375.07455 ± 41.94437 L/kg
- λz ([1]; Low dose (10 mg/kg)): 0.068 ± 0.016 h⁻¹
- drug concentration in the blood ([1]; at 24 h after drug administration): ≤ 5 ng/mL
- absorption and elimination in vivo ([1]; drug metabolism experiments): poorly absorbed and quickly eliminated
